Measured values taken from US9113629B2, “4-amino-6-(4-substituted-phenyl)-picolinates and 6-amino-2-(4-substituted-phenyl)-pyrimidine-4-carboxylates and their use as herbicides” (DOW AGROSCIENCES LLC, priority 2013, dated 2015).
Like-named read-outs stand apart in the source and are kept apart here.

Columns and labels:
[1] = system: Key Broadleaf Weed and Crop Species; test: Post-emergent Test II herbicidal activity (Table 5); format: in vivo; conditions: post-emergence, 336 h, post-emergent, 14 days after application; for pest or weed control at 70 g/ha: 70 g ai/ha; for pest or weed control at 140 g/ha: 140 g ai/ha
In short: (§1)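 Post-emergence foliar spray, 187 L/ha, track sprayer at 43 cm above canopy. Carrier: acetone/water/IPA/DMSO/Atplus 411F/Triton X-155. Plants at 1st–2nd true leaf; subirrigated afterwards; % injury scored visually at 14 d.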

[2] = system: Key Grass and Sedge Weeds as well as Grass Crops; test: Post-emergent Test II herbicidal activity (Table 6); format: in vivo; conditions: post-emergence, 336 h; for pest or weed control at 70 g/ha: application rate 70 g ai/ha; for pest or weed control at 140 g/ha: application rate 140 g ai/ha
In short: as §1

[3] = ABUTH: velvetleaf (Abutilon theophrasti), read-out: Visual Growth Reduction (%) 14 Days After Application ABUTH
[4] = AMARE: redroot pigweed (Amaranthus retroflexus), read-out: Visual Growth Reduction (%) 14 Days After Application AMARE
[5] = BRSNN: oilseed-rape, canola (Brassica napus), read-out: Visual Growth Reduction (%) 14 Days After Application BRSNN
[6] = CHEAL: lambsquarters (Chenopodium album), read-out: Visual Growth Reduction (%) 14 Days After Application CHEAL
[7] = EPHHL: wild poinsettia (Euphorbia heterophylla), read-out: Visual Growth Reduction (%) 14 Days After Application EPHHL
[8] = HELAN: sunflower (Helianthus annuus), read-out: Visual Growth Reduction (%) 14 Days After Application HELAN
[9] = VIOTR: wild pansy (Viola tricolor), read-out: Visual Growth Reduction (%) 14 Days After Application VIOTR
[10] = CYPES: yellow nutsedge (Cyperus esculentus), read-out: Visual Growth Reduction (%) 14 Days After Application, CYPES
[11] = DIGSA: crabgrass (Digitaria sanguinalis), read-out: Visual Growth Reduction (%) 14 Days After Application, DIGSA
[12] = ECHCG: barnyardgrass (Echinochloa crus-galli), read-out: Visual Growth Reduction (%) 14 Days After Application, ECHCG
[13] = ORYSA: rice (Oryza sativa), read-out: Visual Growth Reduction (%) 14 Days After Application, ORYSA
[14] = SETFA: giant foxtail (Setaria faberi), read-out: Visual Growth Reduction (%) 14 Days After Application, SETFA
[15] = SORVU: grain sorghum (Sorghum vulgare), read-out: Visual Growth Reduction (%) 14 Days After Application, SORVU
[16] = TRZSS (wheat, Triticum aestivum), read-out: Visual Growth Reduction (%) 14 Days After Application, TRZSS
[17] = ZEAMX: maize, corn (Zea mays), read-out: Visual Growth Reduction (%) 14 Days After Application, ZEAMX

Which results are given for COC(=O)c1nc(-c2c(F)cc(I)c(F)c2F)cc(N)c1Cl [Compound 90]?
pest or weed control at 70 g/ha [1, 3]: 85 to 94%; pest or weed control at 140 g/ha [1, 3]: 85 to 94%; pest or weed control at 70 g/ha [1, 4]: 95 to 100%; pest or weed control at 140 g/ha [1, 4]: 95 to 100%; pest or weed control at 70 g/ha [1, 5]: 95 to 100%; pest or weed control at 140 g/ha [1, 5]: 95 to 100%; pest or weed control at 70 g/ha [1, 6]: 95 to 100%; pest or weed control at 140 g/ha [1, 6]: 95 to 100%; pest or weed control at 70 g/ha [1, 7]: 95 to 100%; pest or weed control at 140 g/ha [1, 7]: 95 to 100%; pest or weed control at 70 g/ha [1, 8]: 30 to 44%; pest or weed control at 140 g/ha [1, 8]: 75 to 84%; pest or weed control at 70 g/ha [1, 9]: 95 to 100%; pest or weed control at 140 g/ha [1, 9]: 95 to 100%; pest or weed control at 70 g/ha [2, 10]: 95 to 100%; pest or weed control at 140 g/ha [2, 10]: 95 to 100%; pest or weed control at 70 g/ha [2, 11]: 85 to 94%; pest or weed control at 140 g/ha [2, 11]: 75 to 84%; pest or weed control at 70 g/ha [2, 12]: 85 to 94%; pest or weed control at 140 g/ha [2, 12]: 85 to 94%; pest or weed control at 70 g/ha [2, 13]: 30 to 44%; pest or weed control at 140 g/ha [2, 13]: 0 to 29%; pest or weed control at 70 g/ha [2, 14]: 85 to 94%; pest or weed control at 140 g/ha [2, 14]: 85 to 94%; pest or weed control at 70 g/ha [2, 15]: 95 to 100%; pest or weed control at 140 g/ha [2, 15]: 95 to 100%; pest or weed control at 70 g/ha [2, 16]: 30 to 44%; pest or weed control at 140 g/ha [2, 16]: 45 to 59%; pest or weed control at 70 g/ha [2, 17]: 60 to 74%; pest or weed control at 140 g/ha [2, 17]: 60 to 74%; melting point: 176.2 to 178.7 °C
